Assay results published in ChEMBL document CHEMBL1149499, “Synthesis and agonist activity of cyclic ADP-ribose analogues with substitution of the northern ribose by ether or alkane chains” (J Med Chem, 2006).
Active and inactive are the calls of the source. The calls are words filed in the database; no cut-off is given here.

How the values were obtained:
Format in all cases: functional, cell-based
Details in all cases: Homo sapiens
Jurkat [1] = assay: Agonist activity against cADPR/RyR assessed as induction of calcium influx in intact jurkat T cells at 500 uM
Jurkat [2] = assay: Induction of calcium flux in single jurkat T cell by confocal calcium imaging experiment at 500 uM
Jurkat [3] = assay: Antagonist activity against cADPR/RyR assessed as inhibition of anti CD3-stimulated calcium influx in intact jurkat T cells at 500 uM

| Structure (SMILES) | Activity (Jurkat [1]) | Activity (Jurkat [2]) | Activity (Jurkat [3]) |
| --- | --- | --- | --- |
| N=c1c2ncn3c2ncn1CCOCCOP(=O)(O)OP(=O)(O)OC[C@H]1O[C@@H]3[C@H](O)[C@@H]1O | Active | Active | inactive |
| N=c1c2ncn3c2ncn1CCCCOP(=O)(O)OP(=O)(O)OC[C@H]1O[C@@H]3[C@H](O)[C@@H]1O | Active |  | inactive |
| N=c1c2ncn3c2ncn1CCCCCOP(=O)(O)OP(=O)(O)OC[C@H]1O[C@@H]3[C@H](O)[C@@H]1O | Active |  | inactive |
